Measurements taken from publication PMC10011573, “Development of novel broad-spectrum antimicrobial lipopeptides derived from plantaricin NC8 β” (Scientific Reports, 2023).
Non-standard residues stand in square brackets, D forms with d. Residues, ends and D or L forms follow the SMILES beside them. *: point of attachment. Heptanoyl = CCCCCCC(=O)*; Hexanoyl = CCCCCC(=O)*

Experiments:
[1] = Carboxyfluorescein release assay, mammalian liposome model; type: biochemical; settings: 65:5:30 POPC:POPS:Chol. liposomes, 25 µM lipid, 10 mM PBS pH 7.4, 10^–5–10^2 µM peptide, 60 min, fluorescence, Hill fit, n = 3; read-out: EC50 Mammalial (concentration that triggers 50% CF release)
Method: (§1) Liposomes were prepared by thin-film hydration method. Lipids stock solutions (10 mg/ml in chloroform, Avanti Polar Lipids, Inc., Alabaster, United States) of the lipids 1-palmitoyl-2-oleoyl-sn-glycero-3-phosphocholine (POPC), 1-palmitoyl-2-oleoyl-sn-glycero-3-phospho-L-serine (POPS), 1-Hexadecanoyl-2-(9Z-Octadecenoyl)-sn-Glycero-3-Phosphoglycerol (POPG) and Cholesterol (Chol) were employed. Bacterial liposomes were prepared with a 75:25 ratio of POPC:POPG and mammalian liposomes were prepared with a 65:5:30 ratio of POPC:POPS:Chol. Lipid solutions were thoroughly homogenised, and the solvent was evaporated with the use of a dry N2 steam to yield a lipid cake. […] The lipid film was subsequently hydrated with a 5(6)-CF solution (50 mM CF, 10 mM PBS, 90 mM NaCl, pH 7.4). Following a 10 min incubation on orbital shaker (50 min^−1), the solution was vortexed for 60 s on medium speed. A mini extruder (Avanti Polar Lipids, Inc., United States) was employed and 21 extrusions were performed through a 0.1 µm filter membrane (Nuclepore track-etched hydrophilic membrane, Cytiva, Whatman, MA, United States), resulting in monodispersed unilamellar liposomes. Directly before use the liposomes were purified from unencapsulated CF by filtration through a gel filtration column (PD Minitrap G-25 column, Cytiva, United States), against PBS buffer (10 mM, pH 7.4).
(§2) Peptide and lipopeptide activity towards liposome models were evaluated using a carboxyfluorescein (CF) release assay. Liposomes were diluted in PBS (10 mM, pH 7.4) to a final lipid concentration of 25 µM and incubated with peptides (10^–5–10^2 µM) in a 96-well plate (n = 3). CF release was monitored using an Infinite M1000 PRO plate reader every 2.5 min for 1 h. Full (100%) CF release was obtained by addition of 1% Triton X-100 solution followed by 10 min incubation. CF release percentage was evaluated according to the formula 100 * (F − F0)/(FT − F0), where F indicates the instantaneous fluorescence, FT the total fluorescence and F0 the background fluorescence prior to peptide addition. Data were fitted to a Hill-1 curve using MATLAB R2019a (The MathWorks Inc., Natick, Massachusetts, United States) and the half maximum effective concentration (EC50) was extracted.

human erythrocytes = test: Hemolytic activity; type: cell-based; settings: 15% suspension in PBS, 1 h, 37 °C, absorbance 540 nm, highest tested concentration 100 µM
Method: The hemolytic activity of the lipopeptides was investigated by collecting blood from healthy volunteers in heparinized vacutainers. Briefly, the blood was centrifuged at 600 × g for 5 min and the erythrocyte pellet was washed three times in PBS. The cells were then suspended in PBS and added to 96-well plates (15% erythrocyte suspension/well), containing the lipopeptides with two-fold serial dilution. The plates were incubated for 1 h at 37 °C followed by centrifugation for 5 min at 900×g and absorbance measurement of the supernatants at 540 nm. Hemolytic activity (%) was calculated by subtracting the negative control from all values and normalization against the positive control (0.5% Triton X-100), that was set to 100%. All experiments, each in duplicate, were repeated three times.

[2] = Carboxyfluorescein release assay, bacterial liposome model; type: biochemical; settings: 75:25 POPC:POPG liposomes, 25 µM lipid, 10 mM PBS pH 7.4, 10^–5–10^2 µM peptide, 60 min, fluorescence, Hill fit, n = 3; read-out: EC50 Bacterial (concentration that triggers 50% CF release)
Method: as §1, §2

[3] = system: S. aureus (ATCC 29213, MSSA); settings: ATCC 29213, 20 h
Method: (§3) S. aureus (ATCC 29213, MSSA, ATCC, Manassas, VA), E. coli (K-12 MG1655) and clinical isolates of S. aureus, E. coli, E. faecium, K. pneumoniae, A. baumannii, P. aeruginosa and E. cloacae obtained from the Department of Laboratory Medicine at Örebro University Hospital were streaked on Luria–Bertani (LB) agar plates and incubated at 37 °C overnight. Single colonies were inoculated into 5 ml of LB broth and incubated on a shaker (400 rpm) at 37 °C overnight. The bacterial concentrations were determined by viable count and were adjusted to correlate with approximately 10^9 CFU/ml.
(§4) The broth microdilution method was used to determine minimal inhibitory concentration (MIC) and minimal bactericidal concentration (MBC), in accordance with the EUCAST standards for the broth microdilution method. Two-fold serial dilutions of the lipopeptides were used, and the final concentrations ranged from 0.19 to 100 µM. In brief, two-fold serial dilutions of the lipopeptides were performed in a 96-well plate in PBS, with a final volume of 100 µl per well, after which 100 µl of LB-broth media containing approximately 5 × 10^5 CFU/ml of bacteria was added to each well. The plate was then incubated for 20 h in 37 °C on a shaker (400 rpm). The effect of lipopeptide-antibiotic combinations was investigated by performing checkerboard assays. The assays were performed in accordance with the MIC and MBC tests conducted above, but with horizontal and longitudinal two-fold serial dilutions of the tested compounds. […] The fractional inhibitory concentration (FIC) and fractional bactericidal concentration (FBC) were calculated by the equation (MIC or MBC of peptide in combination/MIC or MBC of peptide alone) + (MIC or MBC of antibiotic in combination/MIC or MBC of antibiotic alone). Synergy was defined as FIC/FBC ≤ 0.5, additive when 0.5 < FIC/FBC ≤ 1, indifferent when 1 < FIC/FBC < 2 and antagonistic when FIC/FBC ≥ 2. All experiments were repeated at least three times.

E. coli (K-12 MG1655) = settings: Table 3; K-12 MG1655; broth microdilution, 50:50 PBS/LB-broth, 200 µL, 20 h, 37 °C
Method: as §3, §4

S. aureus (ATCC 29213) = type: cell-based; settings: Table 6; ATCC 29213; checkerboard assay, 50:50 PBS/LB-broth, 200 µL
Method: as §4, with “Two-fold serial dilutions of the lipopeptides were used, and the final concentrations ranged from 0.19 to 100 µM.” left out, “Synergy was defined as FIC/FBC ≤ 0.5, additive when 0.5 < FIC/FBC ≤ 1, indifferent when 1 < FIC/FBC < 2 and antagonistic when FIC/FBC ≥ 2.” left out

SMILES | EC50 [1] [nM] | EC50 [2] [nM] | S. aureus MIC [3] [µM] | E. coli MIC (E. coli (K-12 MG1655)) [µM] | HC, hemolytic concentration at 5% hemolytic activity (human erythrocytes) [µM] | S. aureus MBC [3] [µM] | E. coli MBC (E. coli (K-12 MG1655)) [µM] | S. aureus MBC, antibiotic alone (S. aureus (ATCC 29213)) [µg/mL] | S. aureus MIC, antibiotic alone (S. aureus (ATCC 29213)) [µg/mL]
CCCCCC(=O)N[C@H](CC(C)C)C(=O)NCC(=O)N[C@@H](C(=O)N[C@H](CCCCN)C(=O)N[C@@H](C(=O)N[C@H](CC(C)C)C(=O)N[C@H](Cc1c[nH]c2ccccc12)C(=O)N[C@H](CO)C(=O)N[C@H](C)C(=O)N[C@H](Cc1ccc(O)cc1)C(=O)N[C@H](CCCCN)C(=O)N[C@H](Cc1c[nH]cn1)C(=O)N[C@H](CCCNC(=N)N)C(=O)N[C@H](CCCCN)C(=O)N[C@@H](C(=O)N[C@@H](C(N)=O)[C@H](C)CC)[C@H](C)O)[C@H](C)CC)[C@H](C)CC [D-6-C6] (Hexanoyl-[dL]G[dI][dK][dI][dL][dW][dS][dA][dY][dK][dH][dR][dK][dT][dI]-NH2) | 4990 | 130 | 3.1 | 3.1 | > 100 | 3.1 | 3.1 |  | 
CCCCCC(=O)N[C@@H](CC(C)C)C(=O)NCC(=O)N[C@H](C(=O)N[C@@H](CCCCN)C(=O)N[C@H](C(=O)N[C@@H](CC(C)C)C(=O)N[C@@H](Cc1c[nH]c2ccccc12)C(=O)N[C@@H](CO)C(=O)N[C@@H](C)C(=O)N[C@@H](Cc1ccc(O)cc1)C(=O)N[C@@H](CCCCN)C(=O)N[C@@H](Cc1c[nH]cn1)C(=O)N[C@@H](CCCNC(=N)N)C(=O)N[C@@H](CCCCN)C(=O)N[C@H](C(=O)N[C@H](C(N)=O)[C@@H](C)CC)[C@@H](C)O)[C@@H](C)CC)[C@@H](C)CC [L-6-C6] (Hexanoyl-LGIKILWSAYKHRKTI-NH2) | 3570 | 160 | 3.1 | 6.2 | > 100 | 6.2 | 6.2 |  | 
CCCCCCC(=O)N[C@H](CC(C)C)C(=O)NCC(=O)N[C@@H](C(=O)N[C@H](CCCCN)C(=O)N[C@@H](C(=O)N[C@H](CC(C)C)C(=O)N[C@H](Cc1c[nH]c2ccccc12)C(=O)N[C@H](CO)C(=O)N[C@H](C)C(=O)N[C@H](Cc1ccc(O)cc1)C(=O)N[C@H](CCCCN)C(=O)N[C@H](Cc1c[nH]cn1)C(=O)N[C@H](CCCNC(=N)N)C(=O)N[C@H](CCCCN)C(=O)N[C@@H](C(=O)N[C@@H](C(N)=O)[C@H](C)CC)[C@H](C)O)[C@H](C)CC)[C@H](C)CC [D-6-C7] (Heptanoyl-[dL]G[dI][dK][dI][dL][dW][dS][dA][dY][dK][dH][dR][dK][dT][dI]-NH2) | 1470 | 290 | 1.5 | 3.1 | 65 | 3.1 | 6.2 |  | 
CN(C)[C@@H]1C(O)=C(C(N)=O)C(=O)[C@@]2(O)C(O)=C3C(=O)c4c(O)cccc4[C@@](C)(O)[C@H]3C[C@@H]12 [Tetracycline] |  |  |  |  |  |  |  | 8 | 0.5

Continued, in another order:

EC50 [1] [nM] | EC50 [2] [nM] | S. aureus MIC [3] [µM] | E. coli MIC (E. coli (K-12 MG1655)) [µM] | SMILES | HC, hemolytic concentration at 5% hemolytic activity (human erythrocytes) [µM] | S. aureus MBC [3] [µM] | E. coli MBC (E. coli (K-12 MG1655)) [µM] | S. aureus MBC, antibiotic alone (S. aureus (ATCC 29213)) [µg/mL] | S. aureus MIC, antibiotic alone (S. aureus (ATCC 29213)) [µg/mL]
1220 | 130 | 1.5 | 3.1 | CCCCCC(=O)N[C@H](CC(C)C)C(=O)NCC(=O)N[C@H](CC(C)C)C(=O)N[C@H](CCCCN)C(=O)N[C@H](CC(C)C)C(=O)N[C@H](CC(C)C)C(=O)N[C@H](Cc1c[nH]c2ccccc12)C(=O)N[C@H](CO)C(=O)N[C@H](C)C(=O)N[C@H](Cc1ccc(O)cc1)C(=O)N[C@H](CCCCN)C(=O)N[C@H](Cc1c[nH]cn1)C(=O)N[C@H](CCCNC(=N)N)C(=O)N[C@H](CCCCN)C(=O)N[C@@H](C(=O)N[C@H](CC(C)C)C(N)=O)[C@H](C)O [D-6-C6-Leu] (Hexanoyl-[dL]G[dL][dK][dL][dL][dW][dS][dA][dY][dK][dH][dR][dK][dT][dL]-NH2) | 65 | 1.5 | 3.1 |  | 
1020 | 130 | 1.5 | 3.1 | CCCCCCC(=O)N[C@H](CC(C)C)C(=O)NCC(=O)N[C@H](CC(C)C)C(=O)N[C@H](CCCCN)C(=O)N[C@H](CC(C)C)C(=O)N[C@H](CC(C)C)C(=O)N[C@H](Cc1c[nH]c2ccccc12)C(=O)N[C@H](CO)C(=O)N[C@H](C)C(=O)N[C@H](Cc1ccc(O)cc1)C(=O)N[C@H](CCCCN)C(=O)N[C@H](Cc1c[nH]cn1)C(=O)N[C@H](CCCNC(=N)N)C(=O)N[C@H](CCCCN)C(=O)N[C@@H](C(=O)N[C@H](CC(C)C)C(N)=O)[C@H](C)O [D-6-C7-Leu] (Heptanoyl-[dL]G[dL][dK][dL][dL][dW][dS][dA][dY][dK][dH][dR][dK][dT][dL]-NH2) | 35 | 1.5 | 3.1 |  | 
1100 | 120 | 1.5 | 6.2 | CCCCCCC(=O)N[C@@H](CC(C)C)C(=O)NCC(=O)N[C@@H](CC(C)C)C(=O)N[C@@H](CCCCN)C(=O)N[C@@H](CC(C)C)C(=O)N[C@@H](CC(C)C)C(=O)N[C@@H](Cc1c[nH]c2ccccc12)C(=O)N[C@@H](CO)C(=O)N[C@@H](C)C(=O)N[C@@H](Cc1ccc(O)cc1)C(=O)N[C@@H](CCCCN)C(=O)N[C@@H](Cc1c[nH]cn1)C(=O)N[C@@H](CCCNC(=N)N)C(=O)N[C@@H](CCCCN)C(=O)N[C@H](C(=O)N[C@@H](CC(C)C)C(N)=O)[C@@H](C)O [L-6-C7-Leu] (Heptanoyl-LGLKLLWSAYKHRKTL-NH2) | 30 | 1.5 | 6.2 |  | 
